Six molecules from PMC10606834, “Is the Neuropeptide PEN a Ligand of GPR83?” (International Journal of Molecular Sciences, 2023) can be followed below.

Experiment [1] concerns GPR83 and GPR83del, with or without HA tag (HEK293 cells; wild-type HEK293 as comparison). Kind of experiment: Competitive radioligand binding assay, GPR83. The arrangement: species or system human. The note with it: pH 7.4, 2 h; for radioligand binding signal: 100,000 cpm 125I-labelled peptide, wild-type HEK293 and HEK293 expressing full-length or deletion variant GPR83, with or without HA tag. An excerpt: One of the most proven methods for quantitatively analyzing the interaction of biomolecules is the competitive radioligand binding assay. […] To safeguard against possible interference of the added Tyr with ligand–receptor binding, two peptides were created and are as follows: one with the Tyr on the aminoterminal end (Tyr-PEN), and the other with Tyr added on the carboxyterminus (PEN-Tyr). Radiolabeled ^125I-PEN-Tyr and ^125I-Tyr-PEN were then used on wild-type HEK293 cells and HEK293 cells expressing various forms of GPR83 (full-length or deletion variant, with or without HA tag) in competition with different concentrations of natural PEN or Tyr-PEN, ranging from 1 pM to 1 µM.
Figure 5 HEK293 wild-type cells and HEK293 cells overexpressing various forms of GPR83 were used in radioligand binding assays with two different radioactively labeled PEN peptides: [^125I]-Tyr-PEN or [^125I]-PEN-Tyr. (A) Radioligand [^125I]-PEN-Tyr in competition with unlabeled wild-type PEN. (B) Radioligand [^125I]-Tyr-PEN in competition with unlabeled wild-type PEN. (C) Radioligand [^125I]-PEN-Tyr in competition with unlabeled wild-type PEN. (D) Radioligand [^125I]-Tyr-PEN in competition with Tyr-PEN. […]
Two variants of human PENs were utilized for radioiodination in this study: one with a tyrosine added at the aminoterminal end (Tyr-PEN: […]-NH2), and one with an additional tyrosine attached to the carboxyterminal end (PEN-Tyr: […]-NH2). Both were labelled with ^125I using the chloramine-T method. Chloramine-T and sodium metabisulfite solutions were freshly prepared in water. For labelling, 10 µL of peptide (stock 1 mM) with 15 µL of sodium phosphate buffer (0.5 M, pH 7.6) was mixed with 37 MBq carrier-free Na^125I (NEZ033L010MC, Perkin Elmer, Waltham, MA, USA). A 4 μL volume of chloramine T (1 mg/mL) was added to start the reaction, and after 30 s, 4 μL sodium metabisulfite (2 mg/mL) was added to stop the iodination. The labeled radioactive peptide was separated from unlabeled peptide with HPLC purification (Agilent ZORBAX 300 Extend-C18 column) using a gradient from 20–50% acetonitrile (+0.1% TFA) against water (+0.1% TFA) for 20 min. To determine the retention time of the radioactive peptide, 1–2 µL of the reaction mixture was analyzed before the purification run. The fraction containing the radiolabeled peptide peak was then collected, diluted with binding buffer to prevent radioautolysis, aliquoted, and stored at −80 °C.
4.10. Radioligand Binding Assay
For competitive radioligand binding assay, approximately 50,000 cells/well were seeded in a 96-well plate incubated overnight at 37 °C. Next day, cells were incubated in binding buffer (50 mM HEPES pH 7.4, 5 mM MgCl2, 1 mM CaCl2, 0.5% BSA, cOmplete protease inhibitors) containing 100,000 counts per minute of ^125I-labelled peptide, with increasing concentrations of unlabeled peptide. After 2 h of incubation, cells were washed for 2–3 times with ice-cold washing buffer (50 mM Tris-HCl, pH 7.4, 125 mM NaCl, 0.05% BSA) and lysed with 1 N NaOH (80 µL/well). The lysed cells were transferred to vials and measured in a gamma counter (Wallac 1470 Wizard, Perkin Elmer, Waltham, MA, USA). Obtained cpm values were plotted with GraphPad Prism 7, and the data were fitted using nonlinear regression (one site—fit Ki, one site—fit logIC50).

The test system of experiment [2] is ERK1/2 phosphorylation in HEK293 cells overexpressing GPR83 or GPR83del. Kind of experiment: ERK1/2 phosphorylation (immunoblot), GPR83 cells. Type of experiment: cell-based, human. The following applies: 15 min; for phosphorylation of ERK1/2: 10 µM PEN #1, 100 ng/mL EGF or 200 nM PMA, HEK293 overexpressing GPR83 or GPR83del as well as wild-type HEK293, n = 2 independent experiments. The source says: Apart from G protein-mediated second messenger signaling via Ca^2+ and cAMP, GPCR stimulation may also lead to activation of β-arrestin and phosphorylation of extracellular signal-regulated kinases 1/2 (ERK1/2). Immunoblot analysis was employed to investigate ligand-dependent phosphorylation of ERK1/2 in HEK293 cells overexpressing GPR83 or the deletion variant GPR83del as well as in wild-type HEK293 cells.
Figure 4 Ligand-dependent phosphorylation of ERK1/2 and β-arrestin (TANGO) assay. (A) Immunoblot detection of phosphorylated (upper blot) and total (lower blot) ERK1/2 in lysates of HEK293 wild-type cells and in HEK293 cells overexpressing GPR83 or GPR83del. (B) Quantification (mean ± SD of n = 2 independent experiments) of chemiluminescent readout of the immunoblots shown in (A). (C) TANGO assay for ligand-induced β-arrestin activity in HTLA cells overexpressing GPR83 (relative light units, RLU). (D) TANGO assay for ligand-induced β-arrestin activity in HTLA cells overexpressing bradykinin receptor BDKBR2.
4.7. ERK1/2 Phosphorylation Assay
Effects of GPCR ligands on MAPK signaling were assessed with Western blot analysis of lysates from stimulated cells. The ERK1/2 activation assay was performed as described before. Briefly, 50,000 cells per well were seeded onto adherent 6-well plates and cultured until cells were 80% confluent. After incubation with ligands (10 µM PEN #1 and 100 ng/mL EGF or 200 nM PMA in 0.1% FCS/DMEM) for 15 min, cells were lysed using 200 µL/well cell lysis buffer (100 mM Tris-HCl pH 8.8, 1% SDS) and protease inhibitors (cOmplete, Roche, Basel, Switzerland) on ice for one hour. Immunolabeling was realized using the rabbit monoclonal primary antibody anti-phospho-ERK1/2 Thr^202/Tyr^204 (#4370, Cell Signaling Technologies, Danvers, MA, USA, 1:2000), or anti-total ERK1/2 (#05-1152; Millipore, Burlington, VT, USA; 1:2000), respectively. Blots were analyzed using densitometric quantification using Image Lab Software v4.1 (Bio-Rad).
In general terms: A western blot detects proteins with antibodies after separation by electrophoresis.

The test system of experiment [3] is GPR83 and GPR83del (HEK293 and U2OS clones; wild-type cells as comparison). The experiment is described as follows: Ligand-dependent cAMP formation. The class given is cell-based, human. The following applies: 1 µM PEN or 50 µM forskolin, GPR83-overexpressing clones and wild-type HEK293 and U2OS cells, 10 min incubation, LANCE Ultra cAMP kit, TR-FRET competition, duplicate. As for the experimental part:
Production of cyclic adenosine monophosphate (cAMP) is a hallmark of GPCRs signaling via the Gs-induced pathway. To investigate the potential of PEN to stimulate cAMP production mediated by GPR83, levels of the second messenger were determined after incubation with PEN of various GPR83-overexpressing clones as well as wild-type HEK293 and U2OS cells.
Figure 3 Analysis of ligand-dependent, GPR83-mediated cAMP production. (A) Wild-type HEK293 and U2OS cells as well as various clones with confirmed overexpression of either GPR83 or the deletion variant GPR83del (both ± HA tag) were incubated with either buffer, 1 µM PEN, or 50 µM forskolin. (B) Selected GPR83-overexpressing HEK293 clones were assayed for cAMP production using different concentrations of PEN. (C) Selected GPR83-overexpressing U2OS clones were assayed for cAMP production using different concentrations of PEN.
To measure intracellular cAMP production, the LANCE Ultra cAMP kit (Perkin Elmer) was used according to the manufacturer’s instructions. The day before the experiment, cells were seeded onto a 96-well plate with approximately 80% confluence. After 16–24 h, the medium was removed, and 100 μL/well of serum-free medium was added, followed by a 3 h incubation. Thereafter, medium was removed, and 40 μL of ligand dissolved in cAMP stimulation buffer was pipetted onto cells, then incubated for 10 min. The ligands used were pipetted in duplicate. For concentration–response curves, serial dilutions were carried out from the stock solutions of 1 mM to create a concentration range from 1 µM to 30 pM. As controls, 4 wells were treated with buffer only (negative control) and 4 wells with 50 μM forskolin (positive control). After a 10 min incubation, 10 μL of a 0.5% Triton-X 100 solution in PBS was added to each well. To lyse cells, the plate was shaken on a Vibramax 100 Shaker (Heidolph, Kelheim, Germany) (750 rpm) at room temperature for 10 min. A 10 μL volume of the cell lysates were transferred into a white 384 well plate (ProxiPlate, PerkinElmer). A 5 μL volume of the Europium-cAMP tracer (1 to 50 dilution of Eu-tracer stock in cAMP detection buffer) was added to each well. Next, 5 μL of the ULight-anti-cAMP solution (1 to 150 dilution of ULight-tracer stock in cAMP detection buffer) was added to each well. After a 1 h incubation period at room temperature in the dark, the TR-FRET signal was measured using an EnVision 2103 Multilabel Reader (Perkin Elmer).

For “^125I-Tyr-PEN: Tyr-PEN labelled with 125I using the chloramine-T method”, the radioligand binding signal result in experiment [1] is reported as “neither of these different assay conditions led to a PEN-GPR83 binding signal above background”. With “EGF: positive control, epithelial growth factor (as printed) (NSDSECPLSHDGYCLHDGVCMYIEALDKYACNCVVGYIGERCQYRDLKWWELR; Epidermal growth factor; UniProt P01133 971-1023, looked up)”, the “phosphorylation of ERK1/2, rank of response” value in experiment [2] (100 ng/mL EGF, compared with PEN and PMA, n = 2) was “strongest response”. The “phosphorylation of ERK1/2” value in experiment [2] is recorded as “substantially induced phosphorylation of ERK1/2”. On to “YAADHDVGSELPPEGVLGALLRV-NH2 [Tyr-PEN, human PEN with a tyrosine added at the aminoterminal end]”, for which the “concentration-dependent displacement of radioligand” value in experiment [1] (unlabeled peptide 1 pM to 1 µM versus 125I-PEN-Tyr or 125I-Tyr-PEN, HEK293 wild-type and GPR83 / GPR83del with or without HA tag) is reported as “neither of these different assay conditions led to a PEN-GPR83 binding signal above background or a concentration-dependent displacement of the radioligand”. Regarding “^125I-PEN-Tyr: PEN-Tyr labelled with 125I using the chloramine-T method”, in experiment [1], the radioligand binding signal result is recorded as “neither of these different assay conditions led to a PEN-GPR83 binding signal above background”. In the case of `C=C[C@@]1(C)CC(=O)[C@]2(O)[C@@]3(C)[C@@H](O)CCC(C)(C)[C@@H]3[C@H](O)[C@H](OC(C)=O)[C@@]2(C)O1` [forskolin, reference compound], the cAMP levels result is on record as “strongly increased cAMP levels” in experiment [3] and “strong induction of intracellular cAMP” in experiment [3] (listed as Forskolin). With `CCCCCCCCCCCCCC(=O)O[C@@H]1[C@@H](C)[C@@]2(O)[C@@H](C=C(CO)C[C@]3(O)C(=O)C(C)=C[C@@H]23)[C@@H]2C(C)(C)[C@]12OC(C)=O` [PMA, phorbol-12-myristate-13-acetate, reference compound], in experiment [2], the “phosphorylation of ERK1/2” value is on record as “substantially induced phosphorylation of ERK1/2”.
